Laboratory results from ChEMBL document CHEMBL1201862, “PubChem BioAssay data set” (2004).
Where a name gives a salt, the structure may show the parent alone. Active and inactive are the calls of the source.

Key:
[1] = bead-based luminescence quenchers, dual-tagged ARNT – biochemical, AlphaScreen, cherry-pick, artefact control for ARNT-TACC3 interaction inhibitor project, dose response (AID 651705); type: functional;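 further: AlphaScreen bead proximity signal that flags compounds interfering with the detection technology; potency reflects signal decrease which marks the compound as an assay artifact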
Protein Wnt-3a = Protein Wnt-3a (Mus musculus, UniProt P27467); assay: antagonism of Wnt3a pathway luciferase reporter – Wnt-LIGHT cells, luminescence, selectivity assay for Gli-SUFU antagonist project, dose response (AID 651570); type: functional; conditions: read-out: IC50_Mean;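 further: Wnt-LIGHT reporter cells stimulated with conditioned medium from Wnt3a-producing cells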
INS1 = assay: INS-1E survival protection against cytokine death – cell-based, luminescence, retest, dose response (AID 449756); type: functional; conditions: Rattus norvegicus;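 further: cell death triggered by IL-1 beta plus TNF-alpha plus IFN-gamma mixture; protective hits raise ATP signal compared with cytokine alone wells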
HEK293 [2] = assay: inhibition of NOD1-driven NF-kB reporter – cell-based, luminescence, uHTS, primary screen (AID 1578); type: functional; conditions: Homo sapiens
HEK293 [3] = assay: cells; type: functional, cell-based; conditions: Homo sapiens
HEK293 [4] = assay: cells; type: functional, cell-based; conditions: Homo sapiens; remark: listed apart in the source
HEK293 [5] = assay: NOD2 signaling inhibitors in MDP-stimulated cells, cell-based, uHTS, luminescence (AID 2001); type: functional; conditions: Homo sapiens
P388/ADR = assay: cells; type: functional; conditions: Mus musculus
P388 = assay: cells; type: functional; conditions: Mus musculus
SN12K1 = assay: cells; type: functional; conditions: Homo sapiens
Cytochrome P450 3A4 = Cytochrome P450 3A4 (Homo sapiens, UniProt P08684); conditions: Potency;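 further: confirmatory qHTS run detecting inhibitors and substrates of CYP3A4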
[6] = target: T1, Carboxy-terminal domain RNA polymerase II polypeptide A small phosphatase 1 (Homo sapiens, UniProt Q9GZU7); assay: CTDSP1 inhibitors, concentration-response, biochemical, absorbance readout, ultra-high-throughput screen actives (AID 540297); type: functional
T1 sequence (Q9GZU7 whole entry): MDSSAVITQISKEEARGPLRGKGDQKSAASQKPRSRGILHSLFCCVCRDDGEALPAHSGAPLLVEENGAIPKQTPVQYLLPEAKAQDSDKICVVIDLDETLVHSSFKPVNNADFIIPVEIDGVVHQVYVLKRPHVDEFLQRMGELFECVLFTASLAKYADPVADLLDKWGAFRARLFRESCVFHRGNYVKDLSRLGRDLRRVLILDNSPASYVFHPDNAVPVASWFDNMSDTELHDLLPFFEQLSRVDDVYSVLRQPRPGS

[7] = target: T2, E3 ubiquitin-protein ligase XIAP (Homo sapiens, UniProt P98170); assay: small molecules displacing peptide from XIAP – biochemical, IAP family, fluorescence polarization (AID 1018); type: functional
[8] = target: T2, E3 ubiquitin-protein ligase XIAP; assay: Counter Screen using XIAP-Bir3 for Chemical Antagonists of Bir1/2 domains of IAP-family anti-apoptotic proteins. [Related pubchem assays (depositor defined):AID1018, AID1449, AID1514, AID1638, AID1749, AID1750, AID488957, AID488963]
[9] = target: T3, High affinity choline transporter 1 (Homo sapiens, UniProt Q9GZV3); assay: human choline transporter blockers, potency – cell-based, 5-point CRC, membrane potential dye, dose response (AID 504840); type: functional
T3 sequence (Q9GZV3 whole entry): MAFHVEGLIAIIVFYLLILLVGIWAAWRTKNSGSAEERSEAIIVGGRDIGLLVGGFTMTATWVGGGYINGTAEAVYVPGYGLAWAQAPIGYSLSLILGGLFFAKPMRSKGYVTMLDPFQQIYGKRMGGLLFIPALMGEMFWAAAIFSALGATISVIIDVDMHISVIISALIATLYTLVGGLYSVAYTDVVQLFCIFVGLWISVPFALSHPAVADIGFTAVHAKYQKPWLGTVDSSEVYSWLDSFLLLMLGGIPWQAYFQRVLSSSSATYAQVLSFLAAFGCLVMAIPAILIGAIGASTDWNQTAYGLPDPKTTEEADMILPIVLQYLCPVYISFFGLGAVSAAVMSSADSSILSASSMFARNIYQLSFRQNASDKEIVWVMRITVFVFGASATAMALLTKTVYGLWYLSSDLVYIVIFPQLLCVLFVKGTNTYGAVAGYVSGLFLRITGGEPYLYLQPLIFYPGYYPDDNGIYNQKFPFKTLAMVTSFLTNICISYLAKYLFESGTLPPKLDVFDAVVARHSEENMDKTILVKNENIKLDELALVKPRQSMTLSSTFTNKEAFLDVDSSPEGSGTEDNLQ

[10] = Trypanosoma cruzi growth suppression in host cells – NIH3T3 host cells, beta-gal luminescence, confirmation (AID 2044); type: functional, cell-based;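 further: intracellular parasites grown in NIH/3T3 mouse fibroblasts as host cells; luminescent beta-galactosidase reporter signal from transgenic T. cruzi replicating inside host cells; inhibitors lower the luminescence signal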
[11] = microbe, parasite or virus in culture; type: functional; conditions: Mycobacterium tuberculosis
[12] = NIH3T3 cell viability loss – ATP luminescence, mouse fibroblasts, counter-screen, dose response (AID 2010); type: functional, cell-based;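 further: cells exposed to compound for about 90 hours before reading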
Cytochrome P450 2C9 = Cytochrome P450 2C9 (Homo sapiens, UniProt P11712)
SUMO-activating enzyme = SUMO-activating enzyme (Homo sapiens, UniProt Q9UBT2); assay: blockers of UBC9-mediated SUMO conjugation – biochemical, AlphaScreen, SUMOylation inhibitor project, confirmation (AID 2018); type: functional
Estrogen receptor = target: T4, Estrogen receptor (Homo sapiens, UniProt P03372);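 further: potency for inhibiting coactivator peptide recruitment to the receptor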
T4 sequence (P03372 whole entry): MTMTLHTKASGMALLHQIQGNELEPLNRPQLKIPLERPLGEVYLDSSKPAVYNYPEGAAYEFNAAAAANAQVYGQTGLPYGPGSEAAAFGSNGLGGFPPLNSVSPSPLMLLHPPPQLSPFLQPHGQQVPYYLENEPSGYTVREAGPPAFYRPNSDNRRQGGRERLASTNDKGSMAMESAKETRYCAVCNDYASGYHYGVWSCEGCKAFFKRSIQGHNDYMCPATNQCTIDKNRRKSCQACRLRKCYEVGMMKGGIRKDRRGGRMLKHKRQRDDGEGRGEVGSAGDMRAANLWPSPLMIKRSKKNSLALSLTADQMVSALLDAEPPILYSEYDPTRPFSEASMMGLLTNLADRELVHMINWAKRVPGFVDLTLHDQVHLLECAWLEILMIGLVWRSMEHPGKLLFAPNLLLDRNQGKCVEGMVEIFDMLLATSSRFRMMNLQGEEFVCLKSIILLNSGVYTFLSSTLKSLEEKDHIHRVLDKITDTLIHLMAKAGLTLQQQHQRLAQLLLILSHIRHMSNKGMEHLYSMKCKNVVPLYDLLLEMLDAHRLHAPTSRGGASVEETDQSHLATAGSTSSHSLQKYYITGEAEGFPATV

H9c2 = assay: cells; type: functional, cell-based; conditions: Rattus norvegicus, H9c2, Myocardium;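 further: confirmatory concentration-response retest of ultra-high-throughput screening hits for modulation of myocardial damage; cell death induced by hydrogen peroxide oxidative stress; compound pretreatment for 60 min then peroxide exposure for 2 h; potency is for protecting the cells against peroxide damage rather than for killing them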
[13] = viability of uninfected HEp-2 cells – cell-based, HTS, cytotoxicity control for RSV inhibitor project, dose response (AID 2410); type: functional; conditions: human respiratory syncytial virus
[14] = HIV-1 AD8 envelope cell-cell fusion blockers – cherry-pick, dose response (AID 652062); type: functional, cell-based;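 further: luciferase signal from cell-cell fusion driven by HIV-1 clade B AD8 Env; potency is for inhibitors of fusion seen as a drop in luminescence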
[15] = target: T5, Rac GTPase-activating protein 1 (Homo sapiens, UniProt Q9H0H5); assay: blockers of MgcRacGAP-driven Rac1 GTP hydrolysis – biochemical, ADP Hunter fluorescence, primary and confirmatory, confirmation (AID 624330); type: functional
T5 sequence (Q9H0H5 whole entry): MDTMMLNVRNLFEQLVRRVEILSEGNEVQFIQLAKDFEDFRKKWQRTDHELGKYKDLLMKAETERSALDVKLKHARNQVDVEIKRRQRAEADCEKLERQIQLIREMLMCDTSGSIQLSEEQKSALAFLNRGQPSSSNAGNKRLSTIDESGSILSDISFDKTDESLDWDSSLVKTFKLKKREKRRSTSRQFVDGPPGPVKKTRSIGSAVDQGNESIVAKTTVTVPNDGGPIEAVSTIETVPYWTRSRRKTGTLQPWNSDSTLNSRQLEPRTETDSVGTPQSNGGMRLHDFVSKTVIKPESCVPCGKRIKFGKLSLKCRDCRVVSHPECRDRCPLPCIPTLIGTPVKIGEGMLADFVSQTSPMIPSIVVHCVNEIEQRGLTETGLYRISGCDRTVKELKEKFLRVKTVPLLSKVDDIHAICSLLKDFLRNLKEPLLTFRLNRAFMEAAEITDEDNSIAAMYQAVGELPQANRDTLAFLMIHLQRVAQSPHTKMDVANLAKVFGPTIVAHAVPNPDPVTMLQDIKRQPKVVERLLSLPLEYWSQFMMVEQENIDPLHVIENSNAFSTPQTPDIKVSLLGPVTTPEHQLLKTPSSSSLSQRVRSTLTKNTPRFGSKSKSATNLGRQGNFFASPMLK

[16] = blockers of HIV-1 envelope-mediated cell-cell fusion – cherry-pick, dose response (AID 652057); type: functional, cell-based
HEK293 [17] = assay: EBV LMP1 TES2 canonical NF-kB signalling blockers – cell-based, HEK293, luciferase, cherry-pick, dose response (AID 588343); type: functional; conditions: Homo sapiens
Nonstructural protein 1 = Nonstructural protein 1 (Influenza A virus, UniProt Q194T2); type: functional, Influenza A virus (A/California/07/2009(H1N1))
[18] = viability loss in CEM21 cells – cell-based, CellTiter-Glo luminescence, cherry-picked, cytotoxicity control for viral fusion inhibitor project, dose response (AID 652042); type: functional;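 further: potency for signal decrease meaning cytotoxicity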

T2 sequence (P98170 whole entry): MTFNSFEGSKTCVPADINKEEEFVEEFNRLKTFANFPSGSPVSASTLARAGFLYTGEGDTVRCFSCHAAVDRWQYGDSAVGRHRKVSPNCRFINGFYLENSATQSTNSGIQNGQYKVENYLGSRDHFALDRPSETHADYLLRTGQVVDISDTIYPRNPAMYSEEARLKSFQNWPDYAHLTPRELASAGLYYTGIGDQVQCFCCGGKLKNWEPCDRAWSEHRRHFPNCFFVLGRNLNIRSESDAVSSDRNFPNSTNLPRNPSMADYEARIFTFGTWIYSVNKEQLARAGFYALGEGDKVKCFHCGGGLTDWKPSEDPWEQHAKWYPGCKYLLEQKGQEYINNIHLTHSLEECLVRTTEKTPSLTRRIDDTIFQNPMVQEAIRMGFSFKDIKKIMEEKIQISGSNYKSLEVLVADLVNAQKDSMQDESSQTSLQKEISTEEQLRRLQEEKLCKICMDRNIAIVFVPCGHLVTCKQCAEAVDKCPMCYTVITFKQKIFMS
Chain of Protein Wnt-3a (P27467 whole entry): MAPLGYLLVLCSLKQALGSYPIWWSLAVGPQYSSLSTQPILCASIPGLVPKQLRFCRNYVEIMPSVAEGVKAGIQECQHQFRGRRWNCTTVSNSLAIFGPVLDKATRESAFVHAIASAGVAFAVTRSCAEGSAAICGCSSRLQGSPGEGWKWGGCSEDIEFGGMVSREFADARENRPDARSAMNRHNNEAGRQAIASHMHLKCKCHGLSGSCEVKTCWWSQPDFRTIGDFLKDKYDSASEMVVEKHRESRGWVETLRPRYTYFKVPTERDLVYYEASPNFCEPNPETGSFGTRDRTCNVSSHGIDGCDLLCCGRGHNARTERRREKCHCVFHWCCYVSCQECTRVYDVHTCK
Chain of Cytochrome P450 3A4 (P08684 whole entry, the tested form may be a part): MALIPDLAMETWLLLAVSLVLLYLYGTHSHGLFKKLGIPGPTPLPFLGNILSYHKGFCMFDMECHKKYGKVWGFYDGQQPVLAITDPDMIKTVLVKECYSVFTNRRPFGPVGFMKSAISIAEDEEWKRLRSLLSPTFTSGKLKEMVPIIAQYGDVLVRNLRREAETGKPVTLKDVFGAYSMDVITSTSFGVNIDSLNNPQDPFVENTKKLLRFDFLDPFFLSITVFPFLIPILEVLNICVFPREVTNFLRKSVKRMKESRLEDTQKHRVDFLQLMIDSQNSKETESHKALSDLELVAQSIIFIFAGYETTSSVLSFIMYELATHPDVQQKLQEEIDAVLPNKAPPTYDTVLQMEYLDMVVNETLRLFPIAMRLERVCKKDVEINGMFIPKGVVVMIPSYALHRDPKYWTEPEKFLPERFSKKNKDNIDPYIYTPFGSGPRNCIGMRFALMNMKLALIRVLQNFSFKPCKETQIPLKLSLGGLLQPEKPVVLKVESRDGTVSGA
Chain of Cytochrome P450 2C9 (P11712 whole entry): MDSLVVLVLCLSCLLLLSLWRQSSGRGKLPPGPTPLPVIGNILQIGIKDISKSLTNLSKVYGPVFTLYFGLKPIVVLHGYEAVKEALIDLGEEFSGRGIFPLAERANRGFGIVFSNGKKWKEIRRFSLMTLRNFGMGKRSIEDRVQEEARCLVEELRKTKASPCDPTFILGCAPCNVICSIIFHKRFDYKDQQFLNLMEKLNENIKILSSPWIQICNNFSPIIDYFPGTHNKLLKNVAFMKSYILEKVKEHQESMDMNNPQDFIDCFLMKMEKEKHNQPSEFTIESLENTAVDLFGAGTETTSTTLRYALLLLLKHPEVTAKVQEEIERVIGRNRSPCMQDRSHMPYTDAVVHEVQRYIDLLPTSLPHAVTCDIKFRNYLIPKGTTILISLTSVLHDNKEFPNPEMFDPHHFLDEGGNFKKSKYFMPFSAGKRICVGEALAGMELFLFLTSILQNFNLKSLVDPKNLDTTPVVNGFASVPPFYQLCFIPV
Chain of Nonstructural protein 1 (Q194T2 whole entry, the tested form may be a part): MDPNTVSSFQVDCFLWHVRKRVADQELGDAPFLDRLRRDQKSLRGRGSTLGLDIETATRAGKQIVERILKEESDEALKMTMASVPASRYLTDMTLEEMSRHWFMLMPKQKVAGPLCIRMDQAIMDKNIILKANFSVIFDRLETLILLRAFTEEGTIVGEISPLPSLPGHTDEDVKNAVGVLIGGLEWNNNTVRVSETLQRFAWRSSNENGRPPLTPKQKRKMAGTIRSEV
Chain of SUMO-activating enzyme (Q9UBE0 whole entry): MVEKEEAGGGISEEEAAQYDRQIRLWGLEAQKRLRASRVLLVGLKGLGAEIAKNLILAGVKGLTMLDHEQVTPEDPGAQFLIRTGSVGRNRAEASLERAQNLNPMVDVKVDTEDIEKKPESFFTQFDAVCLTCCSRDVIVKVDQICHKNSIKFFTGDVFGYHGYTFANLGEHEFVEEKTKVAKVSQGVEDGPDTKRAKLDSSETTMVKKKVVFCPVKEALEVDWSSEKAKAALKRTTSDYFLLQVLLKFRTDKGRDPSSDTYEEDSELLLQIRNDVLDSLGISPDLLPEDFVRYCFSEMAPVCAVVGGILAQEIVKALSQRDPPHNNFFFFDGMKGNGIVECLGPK
Chain of SUMO-activating enzyme (Q9UBT2 whole entry): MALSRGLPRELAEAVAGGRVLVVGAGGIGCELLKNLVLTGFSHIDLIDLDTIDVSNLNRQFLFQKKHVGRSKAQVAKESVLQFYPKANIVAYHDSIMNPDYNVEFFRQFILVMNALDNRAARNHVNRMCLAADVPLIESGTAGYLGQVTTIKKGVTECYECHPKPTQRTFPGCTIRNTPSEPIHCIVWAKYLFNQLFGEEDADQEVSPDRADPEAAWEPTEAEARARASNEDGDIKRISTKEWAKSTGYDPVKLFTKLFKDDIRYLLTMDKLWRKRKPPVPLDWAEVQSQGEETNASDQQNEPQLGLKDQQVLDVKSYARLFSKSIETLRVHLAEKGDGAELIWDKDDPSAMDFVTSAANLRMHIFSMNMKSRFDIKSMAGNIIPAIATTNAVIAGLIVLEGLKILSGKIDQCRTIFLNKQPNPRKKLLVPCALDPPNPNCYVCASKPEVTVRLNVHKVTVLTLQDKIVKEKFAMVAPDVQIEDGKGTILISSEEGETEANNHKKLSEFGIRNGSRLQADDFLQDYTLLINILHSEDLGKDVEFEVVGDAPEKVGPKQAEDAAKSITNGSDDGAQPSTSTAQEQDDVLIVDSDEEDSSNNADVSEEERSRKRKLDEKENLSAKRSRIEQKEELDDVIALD

CCOc1ncccc1C(=O)OCC(=O)Nc1nnc(-c2ccccc2)o1
AC50 [1]: 107 µM (active)

CC1CCCCC1NS(=O)(=O)c1ccc(S(=O)(=O)NCc2ccncc2)cc1 (stereo unspecified)
IC50 (Protein Wnt-3a): 1.43 µM (active)
AC50 (INS1): 3.4 µM (active)

COc1cc(/C=C(/C(=O)c2cccs2)c2nc3ccccc3[nH]2)ccc1O
EC50 (HEK293 [2]): 12.1 µM (active)
IC50 (HEK293 [3]): > 20 µM (inactive)
IC50 (HEK293 [4]): 2.96 µM (active)
AC50 (INS1): 18 µM (active)
IC50 (HEK293 [5]): 4.02 µM (active)

O=C(NC(Cc1ccc(Cl)cc1)C(=O)O)c1ccc(I)cc1 (stereo unspecified)
GI50 (P388/ADR): 54.8 µM (inactive)
GI50 (P388): 64.7 µM (inactive)
GI50 (SN12K1): > 100 µM (inactive)

CC(C)=CC(=O)OC1C2C(C)=CC(=O)C(O)C2(C)C2C3(O)OCC24C(CC(=O)OC14)C(C)C3O (stereo unspecified)
GI50 (P388/ADR): 0.102 µM (active)
GI50 (P388): 0.000946 µM (active)
GI50 (SN12K1): 0.02 µM (active)

COC(=O)[C@H]1C[C@H]2CC[C@H](O)C[C@H]2N1CC1CC1
AC50 (Cytochrome P450 3A4): 25.1 µM (inconclusive)

C/C(CC(=O)NC1CCCCC1)=N\NC(=O)Cc1ccc(-c2ccccc2)cc1
IC50 [6]: 7.87 µM (active)

NCC(Cl)C(O)c1c[nH]c(N)n1 (stereo unspecified)
GI50 (P388/ADR): 0.232 µM (active)
GI50 (P388): 0.0353 µM (active)
GI50 (SN12K1): 0.507 µM (active)

COc1cc(C2c3cc4c(cc3[C@@H](Nc3cccc(CO)c3)C3COC(=O)[C@H]23)OCO4)cc(OC)c1O (stereo partly specified)
GI50 (P388/ADR): 0.124 µM (active)
GI50 (P388): < 0.01 µM (active)
GI50 (SN12K1): 0.0925 µM (active)

CC1CCCN(C(C(=O)Nc2ccc(C(C)C)cc2)c2ccc3c(c2)OCO3)C1 (stereo unspecified)
IC50 [7]: > 100 µM (not active)
IC50 [8]: > 100 µM (inactive)

S=C(Nc1ccccc1)N1CCC(Cc2ccccc2)CC1
IC50 (Protein Wnt-3a): 18 µM (active)

c1ccc(CCN2CCN(c3ncnc4c3cnn4-c3ccccc3)CC2)cc1
IC50 [9]: 30.2 µM (active)
EC50 [10]: 2.38 µM (active)
CC50 [11]: > 40 µM (active)
EC50 [12]: > 30 µM (not active)

O=C(N/N=C/c1ccc2c(c1)OCO2)c1cc(-c2ccco2)nc2ccccc12
IC50 [6]: 10.8 µM (active)

COc1ccc(S(=O)(=O)N2CCOC2CNC(=O)C(=O)NCCc2c[nH]c3ccccc23)cc1 (stereo unspecified)
IC50 [7]: > 100 µM (not active)
IC50 [8]: > 100 µM (inactive)

COc1cc(OC)cc(C(=O)Nc2nnc(-c3cccnc3)o2)c1
AC50 [1]: 97.6 µM (active)

CC(=O)Nc1ccc(NC(=O)Cn2c(-c3ccc(F)cc3)cnc2SCC(=O)Nc2c(C)cccc2C)cc1
AC50 (Cytochrome P450 2C9): 17.8 µM (inconclusive)
IC50 (SUMO-activating enzyme): 61.6 µM (active)

O=C(Cn1cnc2c(nnn2-c2ccccc2)c1=O)NCc1ccc(F)cc1
IC50 [6]: 6.76 µM (active)

COc1ccc(NS(=O)(=O)c2ccc3oc(SC(C)C(N)=O)nc3c2)cc1 (stereo unspecified)
EC50 (HEK293 [2]): 6.14 µM (active)
IC50 (HEK293 [3]): > 20 µM (inactive)
IC50 (HEK293 [4]): > 20 µM (inactive)
IC50 (HEK293 [5]): 20 µM (inactive)

Cc1cc(-c2nn3c(-c4ccccc4)nnc3s2)c2ccccc2n1
IC50 [7]: > 100 µM (not active)
IC50 (Estrogen receptor): 21.6 µM (active)
IC50 (H9c2): > 79 µM (inactive)
IC50 [8]: > 100 µM (inactive)

CCCCN1CCCCC1C(=O)Nc1c(C)cccc1C (stereo unspecified) [BUPIVACAINE HYDROCHLORIDE]
AC50 (Cytochrome P450 3A4): 31.6 µM (inconclusive)

COc1ccccc1CCNC(=O)C(=O)NCCC1CCCCN1S(=O)(=O)c1cccs1 (stereo unspecified)
IC50 (Protein Wnt-3a): 12.3 µM (active)
CC50 [13]: 36.7 µM (active)

O=C(Nc1ccccc1-c1nnn(CC(=O)N2CCCc3ccccc32)n1)c1ccc(Cl)cc1
IC50 [7]: > 100 µM (not active)
IC50 [8]: > 100 µM (inactive)

Cc1cccc(CCNC(=O)C2CCCN(c3ncnc4c3nc3n4CCCCC3)C2)c1 (stereo unspecified)
IC50 [9]: 11.8 µM (active)

Oc1ccc(C=NNc2ccccn2)c(O)c1
AC50 [14]: 5.5 µM (active)
IC50 [15]: 27 µM (active)
AC50 [16]: 8.53 µM (active)
AC50 (HEK293 [17]): 10.4 µM (active)
IC50 (Nonstructural protein 1): 2.71 µM (active)
AC50 [18]: 8.15 µM (active)
